Test results published in patent publication US9232796B2, “Herbicidal compositions comprising 4-amino-3-chloro-5-fluoro-6-(4-chloro-2-fluoro-3-methoxyphenyl) pyridine-2-carboxylic acid or a derivative thereof and acetyl-CoA carboxylase (ACCase) inhibitors” (DOW AGROSCIENCES LLC, priority 2012, dated 2016).

Columns and labels:
CYPIR = assay: Example V (second) postemergence foliar-applied ternary mixtures, greenhouse, direct seeded rice weeds; format: in vivo, Cyperus iria L.
Protocol: The treated plants and control plants were placed in a greenhouse as described above and watered by sub-irrigation to prevent wash-off of the test compounds. After approximately 3 weeks, the condition of the test plants as compared with that of the untreated plants was determined visually and scored on a scale of 0 to 100 percent where 0 corresponds to no injury or growth inhibition and 100 corresponds to complete kill.
Colby's equation was used to determine the herbicidal effects expected from the mixtures (Colby, S. R. 1967. Calculation of the synergistic and antagonistic response of herbicide combinations. Weeds 15:20-22.).
The following equation was used to calculate the expected activity of mixtures containing three active ingredients, A, B, and C: Expected=A+B+C−((A×B+A×C+B×C)/100)+(A×B×C/10000)

ECHOR = assay: Example VI in-water applied ternary mixtures, greenhouse, transplanted paddy rice weeds; format: in vivo, Echinochloa oryzoides (Ard.) Fritsch
Protocol: Weed seeds or nutlets of the desired test plant species were planted in puddled soil (mud) prepared by mixing a shredded, non-sterilized mineral soil (50.5 percent silt, 25.5 percent clay, and 24 percent sand, with a pH of about 7.6 and an organic matter content of about 2.9 percent) and water at a 1:1 volumetric ratio. The prepared mud was dispensed in 365 mL aliquots into 16-ounce (oz.) non-perforated plastic pots with a surface area of 86.59 square centimeters (cm^2) leaving a headspace of 3 centimeters (cm) in each pot. Mud was allowed to dry overnight prior to planting or transplanting. Rice seeds were planted in Sun Gro MetroMix® 306 planting mixture, which typically has a pH of 6.0 to 6.8 and an organic matter content of about 30 percent, in plastic plug trays. Seedlings at the second or third leaf stage of growth were transplanted into 860 mL of mud contained in 32-oz. non-perforated plastic pots with a surface area of 86.59 cm^2 4 days prior to herbicide application. The paddy was created by filling the headspace of the pots with 2.5 to 3 cm of water. When required to ensure good germination and healthy plants, a fungicide treatment and/or other chemical or physical treatment was applied. The plants were grown for 4-22 days in a greenhouse with an approximate 14 hr. photoperiod which was maintained at about 29° C. during the day and 26° C. during the night. Nutrients were added as Osmocote® (19:6:12, N:P:K+minor nutrients) at 2 g per 16-oz. pot and 4 g per 32-oz. pot. Water was added on a regular basis to maintain the paddy flood, and supplemental lighting was provided with overhead metal halide 1000-Watt lamps as necessary. The plants were employed for testing when they reached the first through fourth true leaf stage.
Treatments consisted of the benzyl ester of 4-amino-3-chloro-5-fluoro-6-(4-chloro-2-fluoro-3-methoxy-phenyl)pyridine-2-carboxylic acid (Compound A), formulated as an SC (suspension concentrate), an ACCase inhibitor herbicide, and a third herbicidal component, each applied alone and in ternary combination. Forms of compound A were applied on an acid equivalent basis.
The ACCase inhibitor component was applied on an active ingredient basis and included cyhalofop-R-butyl formulated as Clincher® G and metamifop formulated as Metamifop EC. Other herbicidal components were applied on an active ingredient or acid equivalent basis depending on the compound and included penoxsulam formulated as Grasp® SC, bentazon sodium formulated as Basagran®, triclopyr […] (TEA) salt formulated as Grandstand® R, benzobicyclon formulated as Benzobicyclon, benfuresate formulated as Full Slot® WG, pyraclonil formulated as Pyraclon® Flowable, mefenacet (technical grade material), and pretilachlor (technical grade material).
Treatment requirements for each compound or herbicidal component were calculated based upon the rates being tested, the concentration of active ingredient or acid equivalent in the formulation, an application volume of 1 mL per component per pot, and an application area of 86.59 cm^2 per pot.
For formulated compounds, a measured amount was placed in an individual 100 or 200 mL glass vial and was dissolved in a volume of 1.25% (v/v) Agri-Dex® crop oil concentrate to obtain application solutions.
For technical grade compounds, a weighed amount was placed in an individual 100 to 200 mL glass vial and was dissolved in a volume of acetone to obtain concentrated stock solutions.
Applications were made by injecting with a pipetter appropriate amounts of the application solutions, into the aqueous layer of the paddy. Control plants were treated in the same manner with the solvent blank. Applications were made so that all treated plant material received the same concentrations of acetone and crop oil concentrate.
The treated plants and control plants were placed in a greenhouse as described above and water was added as needed to maintain a paddy flood. […]

CCC/C(=N\OCC(C)Oc1ccc(Cl)cc1)C1=C(O)CC(C2CCCSC2)CC1=O (centres unmarked) [Profoxydim, 2-[1-[[2-(4-chlorophenoxy)propoxy]imino]butyl]-3-hydroxy-5-(tetrahydro-2H-thiopyran-3-yl)-2-cyclohexen-1-one, reference compound]
Visual Weed Control (%) - 22 DAA CYPIR Obs (CYPIR; 3.12 gai/ha): 0%
Visual Weed Control (%) - 22 DAA CYPIR Obs (CYPIR; 6.25 gai/ha): 0%

COc1c(Cl)ccc(-c2nc(C(=O)OCc3ccccc3)c(Cl)c(N)c2F)c1F [Compound A Benzyl Ester, benzyl ester of 4-amino-3-chloro-5-fluoro-6-(4-chloro-2-fluoro-3-methoxy-phenyl)pyridine-2-carboxylic acid]
Visual Weed Control (%) - 21 DAA CYPIR Obs (CYPIR; 8 gae/ha): 53%
Visual Weed Control (%) - 22 DAA CYPIR Obs (CYPIR; 8 gae/ha): 37%
Visual Weed Control (%) - 21 DAA CYPIR Obs (CYPIR; 16 gae/ha): 95%
Visual Weed Control (%) - 24 DAA ECHOR Obs (ECHOR; Table 67, 4 gae/ha): 0%
Visual Weed Control (%) - 24 DAA ECHOR Obs (ECHOR; Table 67, 8 gae/ha): 0%
Visual Weed Control (%) - 24 DAA ECHOR Obs (ECHOR; Table 67, 16 gae/ha): 10%
Visual Weed Control (%) - 24 DAA ECHOR Obs (ECHOR; Table 71, 8 gae/ha): 10%
Visual Weed Control (%) - 24 DAA ECHOR Obs (ECHOR; Table 71, 16 gae/ha): 25%

CCCCOC(=O)[C@@H](C)Oc1ccc(Oc2ccc(C#N)cc2F)cc1 [Cyhalofop-butyl, butyl(2R)-2-[4-(4-cyano-2-fluorophenoxy)phenoxy]propanoate, reference compound]
Visual Weed Control (%) - 21 DAA CYPIR Obs (CYPIR; 35 gai/ha): 0%
Visual Weed Control (%) - 24 DAA ECHOR Obs (ECHOR; Table 67, 90 gai/ha): 25%

C[C@@H](Oc1ccc(Oc2nc3ccc(Cl)cc3o2)cc1)C(=O)N(C)c1ccccc1F [Metamifop, (2R)-2-[4-[(6-chloro-2-benzoxazolyl)oxy]phenoxy]-N-(2-fluorophenyl)-N-methylpropanamide]
Visual Weed Control (%) - 24 DAA ECHOR Obs (ECHOR; Table 71, 25 gai/ha): 10%
Visual Weed Control (%) - 24 DAA ECHOR Obs (ECHOR; Table 71, 50 gai/ha): 18%
